Measured values from PubChem BioAssay (NCI).
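Test compounds were applied to cells in 96-well plates for 48 hours at 5 doses. The concentration for full growth arrest is given as TGI.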

What was measured:
Test in all cases: inhibition of tumour cell growth, NCI panel, 48 h
[1] = system: OVCAR-3 ovarian
[2] = system: ACHN renal
[3] = system: MALME-3M melanoma
[4] = system: T-47D breast
[5] = system: A498 renal
[6] = system: UO-31 renal
[7] = system: HL-60(TB) leukemia
[8] = system: MDA-N
[9] = system: EKVX NSCLC
[10] = system: SF-539 CNS
[11] = system: NCI/ADR-RES ovarian
[12] = system: CAKI-1 renal
[13] = system: U251 CNS
[14] = system: RXF 393 renal
[15] = system: HOP-92 NSCLC
[16] = system: SF-295 CNS
[17] = system: HS 578T breast
[18] = system: PC-3 prostate
[19] = system: OVCAR-5 ovarian
[20] = system: HT29 colon
[21] = system: OVCAR-8 ovarian
[22] = system: 786-0 renal
[23] = system: MOLT-4 leukemia
[24] = system: IGROV1 ovarian
[25] = system: MCF7 breast
[26] = system: MDA-MB-435
[27] = system: LOX IMVI melanoma
[28] = system: COLO 205 colon
[29] = system: NCI-H460 lung
[30] = system: SN12C renal
[31] = system: OVCAR-4 ovarian
[32] = system: HOP-62 NSCLC
[33] = system: SK-MEL-5 melanoma
[34] = system: SF-268 CNS
[35] = system: K-562 leukemia
[36] = system: SW-620 colon
[37] = system: SNB-19 CNS
[38] = system: UACC-257 melanoma
[39] = system: SK-MEL-28 melanoma
[40] = system: NCI-H522 lung
[41] = system: NCI-H23 lung
[42] = system: SK-OV-3 ovarian
[43] = system: MDA-MB-231 breast
[44] = system: HCT-15 colon
[45] = system: NCI-H226 lung
[46] = system: SNB-75 CNS
[47] = system: SK-MEL-2 melanoma
[48] = system: KM12 colon
[49] = system: UACC-62 melanoma
[50] = system: TK-10 renal
[51] = system: SR leukemia
[52] = system: HCC-2998 colon
[53] = system: RPMI-8226 leukemia
[54] = system: M14 melanoma
[55] = system: CCRF-CEM leukemia
[56] = system: A549 NSCLC
[57] = system: HCT-116 colon
[58] = system: DU-145 prostate

SMILES: CC(C)CC(NC(=O)C(Cc1ccccc1)NC(=O)[C@H]1CC[C@H](NC(=O)C(Cc2ccc(OC(C)(C)C)cc2)NC(=O)OC(C)(C)C)C1)C(N)=O (some centres not stated)
- TGI [1]: 58 µM
- TGI [2]: > 100 µM
- TGI [3]: 61 µM
- TGI [4]: 46.9 µM
- TGI [5]: > 100 µM
- TGI [6]: > 100 µM
- TGI [7]: > 100 µM
- TGI [8]: 41.1 µM
- TGI [9]: > 100 µM
- TGI [10]: 42.6 µM
- TGI [11]: > 100 µM
- TGI [12]: > 100 µM
- TGI [13]: 28.6 µM
- TGI [14]: > 100 µM
- TGI [15]: 59 µM
- TGI [16]: 83.5 µM
- TGI [17]: 35.8 µM
- TGI [18]: 59.3 µM
- TGI [19]: > 100 µM
- TGI [20]: 46.2 µM
- TGI [21]: 36 µM
- TGI [22]: > 100 µM
- TGI [23]: 53.6 µM
- TGI [24]: 77.8 µM
- TGI [25]: 31.9 µM
- TGI [26]: 41.2 µM
- TGI [27]: 35.1 µM
- TGI [28]: 35.8 µM
- TGI [29]: 39.7 µM
- TGI [30]: 31.5 µM
- TGI [31]: > 100 µM
- TGI [32]: > 100 µM
- TGI [33]: 20.1 µM
- TGI [34]: > 100 µM
- TGI [35]: 47.9 µM
- TGI [36]: 94.3 µM
- TGI [37]: 53.9 µM
- TGI [38]: 37 µM
- TGI [39]: 51.5 µM
- TGI [40]: 33.7 µM
- TGI [41]: 31.4 µM
- TGI [42]: > 100 µM
- TGI [43]: 97 µM
- TGI [44]: 48.9 µM
- TGI [45]: 45.2 µM
- TGI [46]: > 100 µM
- TGI [47]: 34.8 µM
- TGI [48]: 44.1 µM
- TGI [49]: 41.8 µM
- TGI [50]: 86.9 µM
- TGI [51]: > 100 µM
- TGI [52]: 27.5 µM
- TGI [53]: > 100 µM
- TGI [54]: 33.7 µM
- TGI [55]: 43.3 µM
- TGI [56]: > 100 µM
- TGI [57]: 28.2 µM

SMILES: C=CCNC(=S)/N=C\C(C(=O)OCC)=C(/O)C(=O)OCC
- TGI [1]: > 100 µM
- TGI [2]: > 100 µM
- TGI [3]: > 100 µM
- TGI [4]: > 100 µM
- TGI [6]: > 100 µM
- TGI [7]: > 100 µM
- TGI [8]: > 100 µM
- TGI [9]: > 100 µM
- TGI [10]: > 100 µM
- TGI [11]: > 100 µM
- TGI [12]: > 100 µM
- TGI [13]: > 100 µM
- TGI [14]: > 100 µM
- TGI [16]: > 100 µM
- TGI [17]: > 100 µM
- TGI [18]: > 100 µM
- TGI [19]: > 100 µM
- TGI [20]: > 100 µM
- TGI [21]: > 100 µM
- TGI [22]: > 100 µM
- TGI [23]: > 100 µM
- TGI [24]: > 100 µM
- TGI [25]: > 100 µM
- TGI [26]: > 100 µM
- TGI [27]: > 100 µM
- TGI [28]: > 100 µM
- TGI [29]: > 100 µM
- TGI [30]: > 100 µM
- TGI [31]: > 100 µM
- TGI [32]: > 100 µM
- TGI [33]: > 100 µM
- TGI [34]: > 100 µM
- TGI [35]: > 100 µM
- TGI [36]: > 100 µM
- TGI [37]: > 100 µM
- TGI [38]: > 100 µM
- TGI [39]: > 100 µM
- TGI [40]: > 100 µM
- TGI [58]: > 100 µM
- TGI [41]: > 100 µM
- TGI [42]: > 100 µM
- TGI [43]: > 100 µM
- TGI [44]: > 100 µM
- TGI [45]: > 100 µM
- TGI [46]: > 100 µM
- TGI [47]: > 100 µM
- TGI [48]: > 100 µM
- TGI [49]: > 100 µM
- TGI [51]: > 100 µM
- TGI [52]: > 100 µM
- TGI [53]: > 100 µM
- TGI [54]: > 100 µM
- TGI [55]: > 100 µM
- TGI [56]: > 100 µM
- TGI [57]: > 100 µM
